This passage reports IC50 results from patent US10144738B2, “Pyrazolo[1,5-A]PYRAZIN-4-YL derivatives” (Pfizer Inc., priority 2016, dated 2018).

Assay [1] concerns the target TYK2 (Homo sapiens (Human), UniProt P29597). Nature of the assay: JAK Caliper enzyme assay at 1 mM ATP (TYK2). Format: biochemical. Conditions: recombinant human kinase domain, Caliper mobility shift.
The target of assay [2] is JAK1 (Homo sapiens (Human), UniProt P23458). The assay is described as follows: JAK Caliper enzyme assay at 1 mM ATP (JAK1). Format: biochemical. Conditions: recombinant human kinase domain, Caliper mobility shift.
Sequence of JAK1 (P23458 875-1153): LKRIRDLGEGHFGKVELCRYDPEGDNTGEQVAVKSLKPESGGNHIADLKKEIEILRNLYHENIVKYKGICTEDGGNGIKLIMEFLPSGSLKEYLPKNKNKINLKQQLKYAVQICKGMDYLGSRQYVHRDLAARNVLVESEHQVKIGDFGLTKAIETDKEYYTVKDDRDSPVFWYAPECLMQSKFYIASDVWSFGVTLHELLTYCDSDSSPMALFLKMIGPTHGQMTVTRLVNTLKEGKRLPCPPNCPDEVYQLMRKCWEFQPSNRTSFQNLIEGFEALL
The target of assay [3] is JAK2 (Homo sapiens (Human), UniProt O60674). Nature of the assay: JAK Caliper enzyme assay at 1 mM ATP (JAK2). Conditions: recombinant human kinase domain, Caliper mobility shift. Format: biochemical.
Sequence of JAK2 (O60674 849-1124): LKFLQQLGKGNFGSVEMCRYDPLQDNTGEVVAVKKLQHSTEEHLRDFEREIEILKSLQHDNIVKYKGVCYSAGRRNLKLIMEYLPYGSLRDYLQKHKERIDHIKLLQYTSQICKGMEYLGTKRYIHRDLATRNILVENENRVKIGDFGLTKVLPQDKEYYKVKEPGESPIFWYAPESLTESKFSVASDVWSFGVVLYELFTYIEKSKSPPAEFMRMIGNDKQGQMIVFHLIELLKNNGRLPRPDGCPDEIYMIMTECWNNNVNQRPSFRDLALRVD
Assay [4] addresses JAK3 (Homo sapiens (Human), UniProt P52333). Nature of the assay: JAK Caliper enzyme assay at 1 mM ATP (JAK3). Format: biochemical. The note with it: recombinant human kinase domain, Caliper mobility shift.
The subject of assay [5] is IL-12 induced STAT4 phosphorylation (IL-12 signals through TYK2 and JAK2). Nature of the assay: Human Whole Blood IL-12 Induced STAT4 Phosphorylation Assay. Format: cell-based. Conditions: Lymphocyte, IL-12 5 ng/mL, pSTAT4 in lymphocytes by flow cytometry, read-out: HWB IL-12 IC50. On the procedure: Selected compounds were assessed for their ability to inhibit IL-12 signaling in a human whole blood flow cytometry assay. IL-12 signals through TYK2 and JAK2. Human Whole Blood IL-12 Induced STAT4 Phosphorylation Assay
Test articles were prepared as 30 mM stocks in DMSO. An 11-point 2.5 dilution series was created in DMSO with a top concentration of 10 mM. Further dilution was done by adding 4 μL of the above test article solutions into 96 μL of PBS with a top concentration of 400 μM. […] Blood was warmed to 37° C. prior to use. Human whole blood was aliquoted ([…]) in 96-well, deep-well, V-bottom plates and treated with compounds at 11 different concentrations (0.2% DMSO final) at 37° C. for 60 minutes. This was followed by a challenge with IL-12 ([…]; final, 5 ng/mL) for 15 minutes. Samples were treated with warm 1× Lyse/Fix buffer ([…]) to terminate activation and further incubated at 37° C. for 20 minutes to lyse red blood cells. Plates were centrifuged at 300×g for 5 minutes, supernatant was aspirated, and cells were washed with […] of staining buffer (PBS containing 0.5% fetal bovine serum and 0.01% sodium azide). The washed cell pellets were resuspended with […] of pre-chilled 90% methanol, and incubated at 4° C. for 30 minutes. Plates were centrifuged at 300×g for 5 minutes, supernatant containing 90% methanol was aspirated, and cells were washed with […]/well of staining buffer. Cell pellets were resuspended in staining buffer containing anti-pSTAT4-AlexaFluor647 (1 to 150 dilution, […]), and incubated at room temperature in the dark overnight.
Samples were transferred to 96-well U-bottom plates and flow cytometric analysis was performed on a FACSCalibur or LSRFortessa equipped with a HTS plate loader (BD Biosciences). The lymphocyte population was gated for histogram analysis of pSTAT4. Background fluorescence was defined using unstimulated cells and a gate was placed at the foot of the peak to include ˜0.5% gated population. The histogram statistical analysis was performed using CellQuestO Pro version 5.2.1 (BD Biosciences) or FACSDiva version 6.2 (BD Biosciences) software. Relative fluorescence unit (RFU), which measures the level of phospho STAT4, was calculated by multiplying the percent positive population and its mean fluorescence. Data from 11 compound concentrations (singlicate at each concentration) was normalized as a percentage of control based on the formula: % of Control=100×(A−B)/(C−B) where A is the RFU from wells containing compound and IL-12, B is the RFU from wells without IL-12 and compound (minimum fluorescence) and C is the RFU from wells containing only IL-12 (maximum fluorescence). Inhibition curves and IC50 values were determined using the Prism version 5 software (GraphPad, La Jolla, Calif.).

Sequence of JAK3 (P52333 822-1111): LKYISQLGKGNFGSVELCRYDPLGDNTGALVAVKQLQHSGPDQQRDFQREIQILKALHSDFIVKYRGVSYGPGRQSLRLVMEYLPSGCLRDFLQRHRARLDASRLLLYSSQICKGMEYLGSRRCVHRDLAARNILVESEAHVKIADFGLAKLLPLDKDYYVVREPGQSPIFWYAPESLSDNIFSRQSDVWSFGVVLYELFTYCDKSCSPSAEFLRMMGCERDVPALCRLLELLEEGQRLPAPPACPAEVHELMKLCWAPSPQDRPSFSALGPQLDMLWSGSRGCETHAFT
Sequence of TYK2 (P29597 897-1176): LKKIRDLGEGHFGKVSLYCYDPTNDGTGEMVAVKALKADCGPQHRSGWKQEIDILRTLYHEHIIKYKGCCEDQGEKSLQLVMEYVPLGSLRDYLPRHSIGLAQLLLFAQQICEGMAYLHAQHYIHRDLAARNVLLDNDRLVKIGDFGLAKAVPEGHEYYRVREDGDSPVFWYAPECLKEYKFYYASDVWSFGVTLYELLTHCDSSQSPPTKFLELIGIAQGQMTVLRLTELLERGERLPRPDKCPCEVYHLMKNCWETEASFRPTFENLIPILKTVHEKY

The term IC50 denotes the concentration that inhibits the measured activity by half. Consider `CO[C@H]1C[C@@](CC#N)(n2cc(-c3nc(-c4cc(C(N)=O)n[nH]4)cn4nccc34)cn2)C1` [Example 32], for which the IC50 in assay [1] is 17 nM; in assay [2] it was 2250 nM; in assay [3], 339 nM; in assay [4], > 10 µM; in assay [5], 130 nM.
